Consider 4 compounds from ChEMBL document CHEMBL4477252, “Optimization of microtubule affinity regulating kinase (MARK) inhibitors with improved physical properties” (Bioorg Med Chem Lett, 2016).

Molecules are shown by their SMILES.

The nature of assay [1]: Inhibition of full-length recombinant human GST and His-tagged AMPK alpha2/beta1/gamma1 expressed in baculovirus expression system by LanthaScreen assay. (In general: In TR-FRET formats the signal depends on donor and acceptor labels being close together.)
For assay [2], the target named is Sphingosine kinase 1 (Homo sapiens, UniProt Q9NYA1). The assay is described as follows: Inhibition of full-length recombinant human GST-tagged SPHK1 by Z'-LYTE assay.
Sphingosine kinase 1, sequence (Q9NYA1 whole entry): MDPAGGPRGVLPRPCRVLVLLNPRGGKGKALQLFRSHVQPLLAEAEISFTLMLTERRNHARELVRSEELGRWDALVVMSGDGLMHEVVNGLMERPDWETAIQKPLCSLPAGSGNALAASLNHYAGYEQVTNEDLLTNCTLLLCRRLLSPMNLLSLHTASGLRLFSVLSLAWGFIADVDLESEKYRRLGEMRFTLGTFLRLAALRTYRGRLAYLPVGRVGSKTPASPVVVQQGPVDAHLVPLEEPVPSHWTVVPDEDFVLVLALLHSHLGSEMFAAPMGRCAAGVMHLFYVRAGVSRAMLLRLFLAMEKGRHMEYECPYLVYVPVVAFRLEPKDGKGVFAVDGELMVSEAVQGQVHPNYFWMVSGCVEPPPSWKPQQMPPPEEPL
Assay [3] addresses Dual specificity mitogen-activated protein kinase kinase 1 (Homo sapiens, UniProt Q02750). The assay is described as follows: Inhibition of full-length recombinant human His-tagged MAP2K1 expressed in baculovirus expression system by LanthaScreen assay.
Assay [4] has as its target T1, Serine/threonine-protein kinase TAO2 (Homo sapiens, UniProt Q9UL54).
T1 sequence (Q9UL54 whole entry): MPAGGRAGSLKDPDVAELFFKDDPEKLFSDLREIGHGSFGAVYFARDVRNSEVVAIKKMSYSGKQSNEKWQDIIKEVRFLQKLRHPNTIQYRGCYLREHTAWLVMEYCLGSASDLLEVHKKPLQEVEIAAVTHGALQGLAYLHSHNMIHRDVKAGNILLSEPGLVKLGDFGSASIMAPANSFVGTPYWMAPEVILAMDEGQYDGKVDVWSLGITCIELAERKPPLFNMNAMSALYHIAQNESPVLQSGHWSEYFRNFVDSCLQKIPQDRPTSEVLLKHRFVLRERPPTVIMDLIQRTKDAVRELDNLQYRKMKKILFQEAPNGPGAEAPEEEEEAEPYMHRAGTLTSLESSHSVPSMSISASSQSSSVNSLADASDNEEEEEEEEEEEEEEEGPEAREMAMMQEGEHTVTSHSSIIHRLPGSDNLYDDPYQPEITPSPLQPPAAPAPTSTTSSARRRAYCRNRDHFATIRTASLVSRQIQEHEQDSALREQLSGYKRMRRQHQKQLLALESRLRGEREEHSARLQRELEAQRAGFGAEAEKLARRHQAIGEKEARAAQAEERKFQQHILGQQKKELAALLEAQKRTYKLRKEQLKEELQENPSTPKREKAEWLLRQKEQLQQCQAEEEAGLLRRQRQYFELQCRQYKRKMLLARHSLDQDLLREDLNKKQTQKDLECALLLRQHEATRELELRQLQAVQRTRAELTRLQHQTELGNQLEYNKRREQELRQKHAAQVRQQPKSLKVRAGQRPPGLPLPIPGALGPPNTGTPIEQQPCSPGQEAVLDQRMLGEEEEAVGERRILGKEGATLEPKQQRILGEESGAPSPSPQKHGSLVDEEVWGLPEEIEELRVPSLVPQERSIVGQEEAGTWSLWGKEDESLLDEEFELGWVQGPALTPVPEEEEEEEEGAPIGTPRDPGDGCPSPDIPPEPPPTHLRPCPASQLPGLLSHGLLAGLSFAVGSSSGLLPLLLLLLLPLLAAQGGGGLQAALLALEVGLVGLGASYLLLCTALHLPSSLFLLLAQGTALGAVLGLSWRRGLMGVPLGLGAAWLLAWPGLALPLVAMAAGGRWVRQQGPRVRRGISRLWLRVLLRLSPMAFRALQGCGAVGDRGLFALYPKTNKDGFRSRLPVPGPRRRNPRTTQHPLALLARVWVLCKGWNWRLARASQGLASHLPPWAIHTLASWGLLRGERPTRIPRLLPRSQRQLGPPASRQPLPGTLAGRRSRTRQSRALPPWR
The assay is described as follows: Inhibition of recombinant human GST-tagged TAOK2 catalytic domain expressed in baculovirus expression system by Z'-LYTE assay.

Assay [5] concerns the target T2, Mitogen-activated protein kinase 13 (Homo sapiens, UniProt O15264).
T2 sequence (O15264 whole entry): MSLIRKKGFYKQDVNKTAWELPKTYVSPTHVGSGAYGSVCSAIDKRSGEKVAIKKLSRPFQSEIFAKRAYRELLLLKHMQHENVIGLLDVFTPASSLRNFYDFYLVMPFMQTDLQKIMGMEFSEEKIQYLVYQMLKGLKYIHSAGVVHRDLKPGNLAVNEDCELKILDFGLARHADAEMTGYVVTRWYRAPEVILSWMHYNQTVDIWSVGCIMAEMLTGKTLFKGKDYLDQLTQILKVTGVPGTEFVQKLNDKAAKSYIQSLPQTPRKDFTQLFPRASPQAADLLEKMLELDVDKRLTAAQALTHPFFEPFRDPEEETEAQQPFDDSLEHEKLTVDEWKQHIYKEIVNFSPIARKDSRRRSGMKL
Description: Inhibition of full-length recombinant human His-tagged MAPK13 expressed in baculovirus expression system by Z'-LYTE assay.

In assay [6] the target is G protein-coupled receptor kinase 4 (Homo sapiens, UniProt P32298). Description: Inhibition of full-length recombinant human GST-tagged GRK4 expressed in baculovirus expression system by Z'-LYTE assay.
G protein-coupled receptor kinase 4, sequence (P32298 whole entry): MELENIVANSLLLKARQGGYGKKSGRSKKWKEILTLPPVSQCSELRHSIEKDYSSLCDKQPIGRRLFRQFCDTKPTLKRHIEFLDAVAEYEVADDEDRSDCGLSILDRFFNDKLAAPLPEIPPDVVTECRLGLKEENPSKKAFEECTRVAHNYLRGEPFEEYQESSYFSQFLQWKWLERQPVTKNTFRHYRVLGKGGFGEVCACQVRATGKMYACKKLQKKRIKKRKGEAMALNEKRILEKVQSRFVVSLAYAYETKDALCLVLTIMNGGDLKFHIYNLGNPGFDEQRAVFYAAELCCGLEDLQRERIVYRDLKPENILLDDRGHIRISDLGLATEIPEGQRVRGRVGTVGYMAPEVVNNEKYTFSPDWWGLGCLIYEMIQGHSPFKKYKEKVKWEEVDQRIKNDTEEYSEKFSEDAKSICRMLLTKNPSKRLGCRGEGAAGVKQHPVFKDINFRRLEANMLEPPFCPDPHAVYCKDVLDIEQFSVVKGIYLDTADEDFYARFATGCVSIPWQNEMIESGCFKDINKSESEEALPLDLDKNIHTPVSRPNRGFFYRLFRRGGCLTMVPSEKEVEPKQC
Assay [7] deals with MAP/microtubule affinity-regulating kinase 3 (Homo sapiens, UniProt P27448). Description: Inhibition of full-length recombinant human GST-tagged MARK3 expressed in baculovirus expression system using biotinylated-Cdc25C peptide substrate measured after 2 hrs by HTRF assay.
MAP/microtubule affinity-regulating kinase 3, sequence (P27448 whole entry): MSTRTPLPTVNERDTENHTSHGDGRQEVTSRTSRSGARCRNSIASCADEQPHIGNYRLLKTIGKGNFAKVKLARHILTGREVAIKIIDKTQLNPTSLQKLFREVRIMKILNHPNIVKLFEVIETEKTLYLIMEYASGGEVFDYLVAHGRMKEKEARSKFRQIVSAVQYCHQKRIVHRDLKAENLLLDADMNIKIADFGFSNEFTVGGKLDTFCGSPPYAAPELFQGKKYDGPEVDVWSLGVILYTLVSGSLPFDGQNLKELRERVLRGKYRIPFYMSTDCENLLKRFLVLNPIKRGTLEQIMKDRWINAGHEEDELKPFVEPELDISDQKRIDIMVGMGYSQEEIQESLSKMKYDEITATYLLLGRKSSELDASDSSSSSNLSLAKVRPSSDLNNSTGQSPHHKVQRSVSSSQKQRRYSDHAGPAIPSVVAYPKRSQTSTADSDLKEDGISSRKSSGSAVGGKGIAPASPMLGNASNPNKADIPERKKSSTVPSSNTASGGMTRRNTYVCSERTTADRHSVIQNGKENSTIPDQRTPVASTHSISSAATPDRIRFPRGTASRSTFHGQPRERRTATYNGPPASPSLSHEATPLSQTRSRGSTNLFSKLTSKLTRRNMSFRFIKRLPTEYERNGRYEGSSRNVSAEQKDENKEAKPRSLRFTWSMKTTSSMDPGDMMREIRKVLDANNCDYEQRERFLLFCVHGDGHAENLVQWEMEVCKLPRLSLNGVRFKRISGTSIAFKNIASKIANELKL
Assay [8] addresses T3, Interleukin-1 receptor-associated kinase 4 (Homo sapiens, UniProt Q9NWZ3).
T3 sequence (Q9NWZ3 whole entry): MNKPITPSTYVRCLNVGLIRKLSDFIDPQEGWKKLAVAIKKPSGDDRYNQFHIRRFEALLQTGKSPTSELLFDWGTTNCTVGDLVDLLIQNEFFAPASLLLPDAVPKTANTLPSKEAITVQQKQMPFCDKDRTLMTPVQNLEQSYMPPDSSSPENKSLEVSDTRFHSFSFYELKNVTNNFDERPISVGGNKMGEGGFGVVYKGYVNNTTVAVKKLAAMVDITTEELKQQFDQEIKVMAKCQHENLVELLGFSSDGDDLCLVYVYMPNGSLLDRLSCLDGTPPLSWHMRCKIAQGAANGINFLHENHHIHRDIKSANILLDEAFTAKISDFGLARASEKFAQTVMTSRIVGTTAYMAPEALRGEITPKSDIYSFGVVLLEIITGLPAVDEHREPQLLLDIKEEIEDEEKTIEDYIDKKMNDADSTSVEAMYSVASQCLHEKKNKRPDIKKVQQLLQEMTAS
The assay is described as follows: Inhibition of full-length recombinant human His-tagged IRAK4 expressed in baculovirus expression system by Z'-LYTE assay.

Assay [9] has as its target Rho-associated protein kinase 2 (Homo sapiens, UniProt O75116). Description: Inhibition of recombinant human N-terminal GST-tagged ROCK2 (1 to 552 residues) catalytic domain expressed in baculovirus expression system by Z'-LYTE assay.
Assay [10] concerns the target Serine/threonine-protein kinase PAK 1 (Homo sapiens, UniProt Q13153). Description: Inhibition of full-length recombinant human GST-tagged PAK1 expressed in baculovirus expression system by Z'-LYTE assay.
The target in assay [11] is Cyclin-dependent kinase 2 (Homo sapiens, UniProt P24941). The assay is described as follows: Inhibition of full-length recombinant human His-tagged CDK2 expressed in baculovirus expression system by Z'-LYTE assay.
For assay [12], the target named is CDK9/cyclin T1 (Homo sapiens, UniProt P50750). The assay is described as follows: Inhibition of full-length recombinant human His-tagged CDK9/cyclin T1 expressed in baculovirus expression system by Adapta assay.

The term IC50 denotes the concentration that inhibits the measured activity by half.

Dual specificity mitogen-activated protein kinase kinase 1, sequence (Q02750 whole entry): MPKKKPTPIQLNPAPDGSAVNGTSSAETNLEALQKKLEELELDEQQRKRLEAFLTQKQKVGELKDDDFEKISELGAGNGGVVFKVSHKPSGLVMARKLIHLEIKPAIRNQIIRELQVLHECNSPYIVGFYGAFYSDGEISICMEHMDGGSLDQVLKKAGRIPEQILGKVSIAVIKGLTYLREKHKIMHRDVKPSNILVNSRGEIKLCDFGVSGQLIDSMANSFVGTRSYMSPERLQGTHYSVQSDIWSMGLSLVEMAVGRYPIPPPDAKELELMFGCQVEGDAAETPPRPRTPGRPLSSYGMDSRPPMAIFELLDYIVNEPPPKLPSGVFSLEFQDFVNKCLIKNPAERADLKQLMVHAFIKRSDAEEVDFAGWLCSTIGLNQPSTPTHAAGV
Serine/threonine-protein kinase PAK 1, sequence (Q13153 whole entry): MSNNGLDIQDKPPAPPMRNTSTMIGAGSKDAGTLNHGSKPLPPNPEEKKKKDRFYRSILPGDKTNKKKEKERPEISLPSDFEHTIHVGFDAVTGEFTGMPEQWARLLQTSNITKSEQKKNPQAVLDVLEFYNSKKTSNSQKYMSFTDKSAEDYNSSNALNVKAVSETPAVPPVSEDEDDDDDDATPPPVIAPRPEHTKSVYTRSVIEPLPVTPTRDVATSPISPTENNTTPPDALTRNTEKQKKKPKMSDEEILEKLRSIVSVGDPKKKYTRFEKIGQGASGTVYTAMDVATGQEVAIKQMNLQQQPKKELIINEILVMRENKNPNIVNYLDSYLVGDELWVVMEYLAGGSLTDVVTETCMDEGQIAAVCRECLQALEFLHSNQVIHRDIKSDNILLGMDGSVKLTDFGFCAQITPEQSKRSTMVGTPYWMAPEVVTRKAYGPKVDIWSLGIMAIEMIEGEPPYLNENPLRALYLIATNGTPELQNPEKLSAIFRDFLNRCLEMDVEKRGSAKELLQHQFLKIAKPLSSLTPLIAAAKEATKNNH
Rho-associated protein kinase 2, sequence (O75116 whole entry, the tested form may be a part): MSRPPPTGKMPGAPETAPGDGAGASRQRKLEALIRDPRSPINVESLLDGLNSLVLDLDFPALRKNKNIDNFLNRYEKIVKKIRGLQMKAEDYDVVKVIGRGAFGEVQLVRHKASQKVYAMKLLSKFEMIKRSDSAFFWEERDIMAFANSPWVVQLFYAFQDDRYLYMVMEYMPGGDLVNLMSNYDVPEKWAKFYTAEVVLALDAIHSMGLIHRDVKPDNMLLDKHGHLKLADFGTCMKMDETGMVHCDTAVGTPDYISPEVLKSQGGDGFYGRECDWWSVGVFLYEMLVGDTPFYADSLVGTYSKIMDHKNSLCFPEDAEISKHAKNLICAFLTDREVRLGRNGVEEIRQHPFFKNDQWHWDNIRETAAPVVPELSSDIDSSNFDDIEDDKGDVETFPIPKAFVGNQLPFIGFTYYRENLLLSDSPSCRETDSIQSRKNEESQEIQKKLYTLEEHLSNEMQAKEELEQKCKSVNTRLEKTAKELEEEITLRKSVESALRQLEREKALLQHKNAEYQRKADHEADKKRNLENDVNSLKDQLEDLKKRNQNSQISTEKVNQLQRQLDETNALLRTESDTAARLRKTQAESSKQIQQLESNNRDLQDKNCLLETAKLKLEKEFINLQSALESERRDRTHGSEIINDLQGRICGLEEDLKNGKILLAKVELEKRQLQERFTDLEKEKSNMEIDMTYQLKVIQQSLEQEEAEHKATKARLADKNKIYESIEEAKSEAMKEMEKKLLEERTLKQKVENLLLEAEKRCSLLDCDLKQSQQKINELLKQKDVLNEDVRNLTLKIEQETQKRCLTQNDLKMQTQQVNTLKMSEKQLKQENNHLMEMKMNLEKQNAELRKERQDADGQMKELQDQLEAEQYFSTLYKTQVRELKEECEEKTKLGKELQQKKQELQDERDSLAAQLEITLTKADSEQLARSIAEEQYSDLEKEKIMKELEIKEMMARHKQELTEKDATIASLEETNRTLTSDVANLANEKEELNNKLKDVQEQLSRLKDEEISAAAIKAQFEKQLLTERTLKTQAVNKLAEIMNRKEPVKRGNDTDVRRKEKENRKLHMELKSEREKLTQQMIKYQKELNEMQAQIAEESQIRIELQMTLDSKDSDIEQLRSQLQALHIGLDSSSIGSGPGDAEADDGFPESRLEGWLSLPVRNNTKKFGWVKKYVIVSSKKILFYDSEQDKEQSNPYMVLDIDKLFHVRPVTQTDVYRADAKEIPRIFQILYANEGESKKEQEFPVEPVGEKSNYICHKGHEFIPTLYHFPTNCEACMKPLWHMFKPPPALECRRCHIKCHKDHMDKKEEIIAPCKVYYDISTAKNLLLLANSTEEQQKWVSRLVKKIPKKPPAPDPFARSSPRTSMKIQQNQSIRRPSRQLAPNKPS

`Cn1cc(-c2cnc3c(-c4csc(C(=O)NCC(F)(F)F)c4)cnn3c2)cn1`: the IC50 was 68 nM in [1]; > 100000 nM in [2]; 12000 nM in [3]; 25000 nM in assay [4]; 2200 nM in assay [5]; 19000 nM in assay [6]. In addition, the IC50 in assay [7] is 6 nM; in assay [8], 64 nM; in assay [9] it was 560 nM; in [10] it was 6200 nM; in assay [11] it was < 10 nM; in [12], 35 nM.

Take `Cc1sc(C(=O)N[C@@H]2[C@H](N)CCCC2(F)F)cc1-c1cnn2cc(Cl)cnc12`: the IC50 in assay [1] is 290 nM; in assay [2], > 100000 nM; in assay [3], 1100 nM; in assay [4], 11000 nM; in assay [5], 160 nM; in [6] it was 670 nM. In addition, the IC50 in assay [7] was 5 nM; in assay [8], 3000 nM; in [9] it was 1100 nM; in assay [10] it was 2100 nM; in [11] it was 51 nM; in assay [12], 240 nM.

Take `O=C(NCC(F)(F)F)c1cc(-c2cnn3cc(-c4ccc(OCCN5CCCCC5)cc4)cnc23)cs1`: the IC50 is 25 nM in [1]; 32000 nM in assay [2]; 7200 nM in assay [3]; 2700 nM in assay [4]; 13000 nM in [5]; 5300 nM in [6]. Also, the IC50 in [7] worked out at 1 nM; in assay [8], 210 nM; in assay [9], 430 nM; in [10], 8300 nM; in assay [11], 12 nM; in assay [12] it was 45 nM.

Turning to `Cn1cc(-c2cnc3c(-c4csc(C(=O)N[C@@H]5CCCC[C@@H]5N)c4)cnn3c2)cn1` (racemic), the IC50 in assay [2] was > 10000 nM; in [3], 120 nM; in [4] it was 420 nM; in [5] it was 39 nM; in assay [6] it was 260 nM; in assay [7] it was ≤ 0.5 nM. Also, the IC50 is 23 nM in assay [8]; 52 nM in assay [9]; 24 nM in [10]; 2.2 nM in assay [11]; 12 nM in assay [12].
